Experiments:
Assay type in all cases: biochemical
[1] = Hydroxyl radical scavenging activity; conditions: for TBARS Inhibition (%): Table 6 (hydroxyl radical scavenging)
[2] = Lipid peroxidation (TBARS) inhibition assay; conditions: for TBARS Inhibition (%): Table 7
[3] = Anti-oxidant assay (DPPH radical scavenging activity)

SMILES: O=C1O[C@H]([C@@H](O)CO)C(O)=C1O [Ascorbic Acid, ascorbic acid]
- Inhibitory concentration [IC50], hydroxyl radical [1]: 30.83 µg/mL
- TBARS Inhibition (%) ([1]; Conc. 6.25 μl/ml): 35.27%
- TBARS Inhibition (%) ([1]; Conc. 12.5 μl/ml): 42.80%
- TBARS Inhibition (%) ([1]; Conc. 25 μl/ml): 53.76%
- TBARS Inhibition (%) ([1]; Conc. 50 μl/ml): 64.72%
- TBARS Inhibition (%) ([1]; Conc. 100 μl/ml): 64.43%
- TBARS Inhibition (%) ([1]; Conc. 200 μl/ml): 76.71%
- Inhibitory concentration [IC50], lipid peroxidation (TBARS) [2]: 20.32 µg/mL
- TBARS Inhibition (%) ([2]; Conc. 6.25 μl/ml): 36.0%
- TBARS Inhibition (%) ([2]; Conc. 12.5 μl/ml): 47.69%
- TBARS Inhibition (%) ([2]; Conc. 25 μl/ml): 54.76%
- TBARS Inhibition (%) ([2]; Conc. 50 μl/ml): 62.15%
- TBARS Inhibition (%) ([2]; Conc. 100 μl/ml): 68.92%
- TBARS Inhibition (%) ([2]; Conc. 200 μl/ml): 72.61%
- DPPH radical inhibition (%) ([3]; Conc. 3.125 μl/ml): 29.93%
- DPPH radical inhibition (%) ([3]; Conc. 6.25 μl/ml): 52.42%
- DPPH radical inhibition (%) ([3]; Conc. 12.5 μl/ml): 71.28%
- DPPH radical inhibition (%) ([3]; Conc. 25 μl/ml): 87.88%
- DPPH radical inhibition (%) ([3]; Conc. 50 μl/ml): 92.05%
- DPPH radical inhibition (%) ([3]; Conc. 100 μl/ml): 95.01%
- DPPH radical inhibition (%) ([3]; Conc. 200 μl/ml): 29.93%
- Inhibitory concentration [IC50], DPPH ([3]; from graph of % inhibition vs concentration): 17.30 µg/mL
